Results: US20250302040A1, “FUNGICIDAL COMBINATIONS OF FLUAZINAM AND USES THEREOF” (priority 2022, published 2025)
Converted amounts (≈) assume the structure as drawn.

Key:
[1] = test system: Venturia inaequalis; assay: Apple scab control on apple leaves (incidence), Colby analysis; settings: 27 days after application
Description: Here, efficacy or percent inhibition is determined in %.
Efficacy of the fungicidal compositions is evaluated with reference to a scale of 0 to 100% in comparison with untreated control plots. 0 means no control and 100 means complete control of the target disease.
The experiments were conducted by applying commercially available formulations of Fluazinam and other mixture partners, alone or with their tank-mixed compositions. The compositions were diluted with water.
Each formulation with active ingredient is diluted with water and biological efficacy trials on target fungi are conducted.

[2] = test system: Phytophthora infestans; assay: microbe, parasite or virus in culture; format: cell-based
[3] = test system: Zymoseptoria tritici; assay: Microtiter plate (MTP) fungal growth assay, optical density, Wadley analysis; format: cell-based; settings: single active ingredient, OD 590 nm after 5 days at 19° C.
[4] = Fluazinam 350 g/ha, Fluxapyroxad 75 g/ha, mixture 350 + 75 g/ha

Structure (SMILES): O=[N+]([O-])c1cc(C(F)(F)F)c(Cl)c([N+](=O)[O-])c1Nc1ncc(C(F)(F)F)cc1Cl [Fluazinam]
- Observed % control (O) [1, 4]: 30.50%
- EC50 ([2]; Phytophthora infestans, 120 h, read-out: EC50 observed): 0.528 µg/mL (≈ 1.14 µM)
- EC50 ([3]; Zymoseptoria tritici, 120 h, read-out: EC50 observed): 0.257 µg/mL (≈ 0.552 µM)

Structure (SMILES): COc1ccnc(C(=O)N[C@@H](C)C(=O)O[C@@H](C)C(c2ccc(F)cc2)c2ccc(F)cc2)c1OC(C)=O [Florylpicoxamid]
- EC50 observed [3]: 0.0022 µg/mL (≈ 0.00429 µM)

Structure (SMILES): Cn1cc(C(=O)Nc2ccccc2-c2cc(F)c(F)c(F)c2)c(C(F)F)n1 [Fluxapyroxad]
- Observed % control (O) [1, 4]: 27.50%
- Observed % control (O) ([1]; Fluxapyroxad 90 g/ha, mixture 350 + 90 g/ha): 43.80%

Structure (SMILES): Cn1nnnc1/C(=N\OCc1cccc(NC(=O)OC(C)(C)C)n1)c1ccccc1 [Picarbutrazox]
- EC50 observed ([2]; single active ingredient, OD 590 nm after 5 days at 19° C.): 0.0026 µg/mL (≈ 0.00635 µM)

Structure (SMILES): Cn1cc(C(=O)Nc2ccccc2Oc2ccc(C(F)(F)F)cc2Cl)c(C(F)F)n1 [Flubeneteram]
- EC50 observed [3]: 0.1221 µg/mL (≈ 0.274 µM)

Structure (SMILES): Cc1ccc(C(=O)OCc2ccc(Oc3ccccc3)cc2)c(N)n1 [Aminopyrifen]
- EC50 observed [3]: 0.2220 µg/mL (≈ 0.664 µM)
